Experimental findings from ChEMBL document CHEMBL1144444, “Predictive three-dimensional quantitative structure-activity relationship of cytochrome P450 1A2 inhibitors” (J Med Chem, 2005) are described below.

pIC50: −log10 of the molar value.

By pIC50 is commonly meant the IC50 on a negative log10 scale, so that one unit is a factor of ten. As a reminder, the IC50 is the point on the concentration scale where inhibition reaches its midpoint.

The target of this test is T1, Cytochrome P450 1A2 (Homo sapiens, UniProt P05177).
T1 sequence (P05177 whole entry): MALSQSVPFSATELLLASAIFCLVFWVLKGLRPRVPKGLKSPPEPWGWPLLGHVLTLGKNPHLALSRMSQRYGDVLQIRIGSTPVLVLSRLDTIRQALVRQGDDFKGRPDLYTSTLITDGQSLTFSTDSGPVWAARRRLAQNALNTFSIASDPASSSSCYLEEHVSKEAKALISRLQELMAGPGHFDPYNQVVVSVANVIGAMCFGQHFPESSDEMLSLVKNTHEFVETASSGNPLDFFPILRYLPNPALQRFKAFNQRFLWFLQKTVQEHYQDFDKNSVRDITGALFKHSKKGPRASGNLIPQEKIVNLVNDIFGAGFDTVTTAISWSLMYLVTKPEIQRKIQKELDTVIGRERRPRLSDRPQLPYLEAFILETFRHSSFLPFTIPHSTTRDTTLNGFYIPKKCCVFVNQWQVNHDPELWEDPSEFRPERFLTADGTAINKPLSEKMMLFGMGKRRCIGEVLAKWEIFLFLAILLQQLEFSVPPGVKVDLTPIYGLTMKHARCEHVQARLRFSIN
Put plainly: Inhibitory concentration against recombinant human cytochrome P450 1A2. The settings on record: for IC50: human, recombinant human CYP1A2.

On to `O=C1Cc2ccccc2O1`, for which the negative-log IC50 (pIC50) is 3.59.

For the compound `Clc1ccc(-c2ccccc2)cc1`, the pIC50 was 4.31.

Take `O=C1CCCCCO1`: the IC50 is greater than 40000 µM.

With `COc1ccc(C=O)cc1`, the pIC50 is 3.57.

Consider `Cc1ccc2cccc(C)c2c1`, for which the negative logarithm of the IC50 (pIC50) was 5.12.

Take `Cc1cnc2ccccc2c1`: the pIC50 was 4.89.

Regarding `Oc1ccc2ccccc2c1` [BETANAPHTHOL], the negative logarithm of the IC50 (pIC50) was 4.77.

With `O=C1CCC(c2ccccc2)O1` (stereo unspecified), the negative-log IC50 (pIC50) was 2.64.

Turning to `CCCCC1CCCCC1` [BUTYLCYCLOHEXANE], the negative-log IC50 (pIC50) was 4.26.

On to `CCCCc1ccccc1` [BUTYLBENZYL], for which the pIC50 was 2.43.

In the case of `Cc1cccc2ccccc12`, the negative logarithm of the IC50 (pIC50) is 3.96.

In the case of `CN1C(=O)CCC1c1cccnc1` (single isomer, unassigned) [COTININE], the pIC50 is 2.27.

As to `Cc1ccc(CCN)cc1`, the negative logarithm of the IC50 (pIC50) is 4.85.

In the case of `Cc1ccc2c(C)cccc2c1`, the pIC50 was 4.60.

Take `Fc1ccc2ccccc2c1`: the pIC50 is 4.31.

As to `Cc1cccc2c(C)cccc12`, the negative logarithm of the IC50 (pIC50) was 4.38.

`c1ccc2c(c1)CCC2`: the negative-log IC50 (pIC50) was 3.26.

Turning to `CCC1CCC(=O)O1` (stereo unspecified), the pIC50 was 2.00.

As for `Cc1ccc2ccc(C)cc2c1`, the negative logarithm of the IC50 (pIC50) was 4.19.

As to `O=c1[nH]c2ccccc2o1` [BENZOXAZOLINONE], the negative logarithm of the IC50 (pIC50) is 3.43.

For `Cc1cc2ccccc2cn1`, the pIC50 is 4.68.

As for `Cc1ccc(C)c2ccccc12`, the pIC50 is 5.44.

As for `c1ccc(-c2ccccc2)cc1` [BIPHENYL], the pIC50 is 3.80.

`Cc1ccc2ccccc2c1`: the pIC50 is 3.92.

`Cc1ccc2ccccc2n1` [QUINALDINE]: the pIC50 is 4.40.

As for `CCc1ccc2ccccc2c1`, the negative logarithm of the IC50 (pIC50) was 4.72.

Take `CN1CCC[C@@H]1c1cccnc1` [R-NICOTINE]: the negative-log IC50 (pIC50) is 2.39.

As for `COC1=CC(=O)OC1`, the IC50 was greater than 40000 µM.

In the case of `Cc1ccc2cc(C)ccc2c1`, the negative-log IC50 (pIC50) is 4.28.

Regarding `Cc1cc(C)c2ccccc2n1`, the pIC50 was 5.62.

With `Oc1cccc2ccccc12` [1-NAPHTHOL], the pIC50 was 5.49.

As for `Cc1cc(C)oc(=O)c1`, the pIC50 is 2.35.

Consider `Clc1ccccc1-c1ccccc1`, for which the pIC50 is 3.64.

As for `c1ccc2ccccc2c1`, the pIC50 is 3.15.

On to `c1ccc2c(c1)CCO2`, for which the pIC50 is 2.92.

On to `Clc1cccc2ccccc12`, for which the pIC50 was 4.30.
